Among the data in a melting point compilation (Tetko et al.; mined from patent text by program, amines drawn as free bases though some values may be those of a salt) are melting point values, retold here.

Each structure is given as a SMILES string.

The melting point is the temperature of the solid-liquid transition. As for `CCc1nc2c(cnn2CC)c(NC2CCOCC2)c1CNC(=O)c1cccc(C(=O)NCc2cc(Cl)cc(-c3cccc(CN4CC5CC4CN5)c3)c2)c1` (centres undefined), the melting point lay in the range of 130 to 133 °C.

Compound `OCC1(c2ccc(Cl)cc2)CCC1` came in with a melting point of 53 to 54 °C.

In the case of `COC(=O)C(=O)c1nccn1Cc1cccs1`, the melting point fell in the range of 72.5 to 74.5 °C.

`Cc1nnc(-c2sc(N3CCN(Cc4ccc(F)cc4)C3=O)nc2C)[nH]1`: the melting point lay in the range of 248 to 249 °C.

The compound `CCCN(c1cccc2cc(-c3nccs3)[nH]c12)S(=O)(=O)c1cccs1` returned a melting point of 130 to 131 °C.

For `CCCCC(=O)Nc1cscc1N`, the melting point was 110 °C.

The compound `Cn1c(COc2ccc(CC3SC(=O)NC3=O)cc2)nc2ccc(OCc3ccccc3)nc21` (centres undefined) came in with a melting point of 210 to 211 °C.

Compound `Cc1cccc(NC(=O)NCc2ccc(-c3n[nH]c4c3Cc3cc(CN5CCOCC5)ccc3-4)s2)c1` gave a melting point of 158 to 161 °C.

Compound `CC(CCCCCCC(=O)O)C1CCC2C3CCC4CC(O)CCC4(C)C3CC(O)C12C` (centres undefined) displayed a melting point of 182 to 185 °C.

`O=C(O)COc1ccc(-c2cc(O)c(SCCc3ccccc3)c(=O)o2)cc1` returned a melting point of 182 to 183 °C.

`CC(C)(C)CC(C)(C)c1ccc2c(c1)C(=O)NS2(=O)=O` returned a melting point of 213 to 215 °C.

Take `N#CC1CN1C(=O)NC(=O)c1ccc(Cl)cc1` (centres undefined): the melting point is 160 to 162 °C.

Regarding `CC(=S)NC[C@H]1CN(c2ccc(N3CCOCC3)c(F)c2)C(=O)O1`, the melting point stood at 158 °C.

For the compound `CCCOc1ccc(-c2scc(-c3ccccc3Cl)c2CC(=O)NC(=N)NCCCO)cc1C`, the melting point was in the range of 73 to 76 °C.

In the case of `O=CN(O)C(CCc1ccc(C(=O)O)cc1)CS(=O)(=O)c1ccc(Oc2ccc(OC(F)(F)F)cc2)cc1` (centres undefined), the melting point lay in the range of 189 to 191 °C.

`COc1cc(NC(=O)c2cccc(CCc3cc(Nc4ccccc4)n[nH]3)c2)cc(OC)c1OC`: the melting point lay within 67 to 69 °C.

`Cc1c(C(=O)c2ccc(O)cc2)oc2ccc([N+](=O)[O-])cc12` returned a melting point of 235 °C.

`CCOC(=O)c1c(CBr)nc2cc(OC)c(OC)cc2c1-c1ccc(OC)c(OC)c1` gave a melting point of 135 to 136 °C.

On to `COC(=O)c1cc2ccnc(NCc3ccccc3)c2[nH]1`, for which the melting point is 154 to 155 °C.

Take `CCCn1cnc2c1c1n[nH]c(=O)n1c(=O)n2CCC`: the melting point lay within 217 to 218 °C.

In turn, `CC(=O)N1CCN(Cc2sccc2S(=O)(=O)N(C)c2cccc3cc(-c4nccs4)[nH]c23)CC1` registered a melting point of 242 °C.

Turning to `CC(C)(C)[Si](C)(C)Oc1c(I)cc(Cl)c2cccnc12`, the melting point is 65 to 67 °C.

`CCCc1nn(-c2ccc(C(F)(F)F)cn2)cc1CCCOc1cccc(CC(=O)O)c1F` gave a melting point of 109 to 110 °C.

For `CC(C(=O)O)c1ccc2c(c1)CCc1cccnc1O2` (centres undefined), the melting point is 182 to 184 °C.

`CCOC(=O)c1c(N)nc(C)c(C(=O)CCCCCCCCCCBr)c1-c1cccc([N+](=O)[O-])c1` came in with a melting point of 73 to 74 °C.

Compound `Nc1nc2c(NCc3ccccc3)ncnc2n1C1OC(CO)C(O)C1O` (centres undefined) came in with a melting point of 80 to 82 °C.

Regarding `O=C(O)Cc1ccc(S(=O)(=O)c2ccc(Cl)cc2)cc1`, the melting point was in the range of 153 to 157 °C.

In turn, `O=C1C=C(C(=O)c2ccccc2[N+](=O)[O-])CC(c2ccccc2)N1` (centres undefined) registered a melting point of 139 to 141 °C.

As for `CCN1CCCC1CNC(=O)c1cc(-n2cnnn2)ccc1OC` (centres undefined), the melting point is 171 to 174 °C.

On to `CCc1noc(-c2cn(-c3c(OCc4ccccc4)cccc3OCc3ccccc3)cn2)n1`, for which the melting point is 149 to 150 °C.

Consider `COc1cc2ncc(C#N)c(Nc3ccc(F)c(Cl)c3)c2cc1NC(=O)C=CCN1CCC(O)(O)CC1`, for which the melting point fell in the range of 225 to 230 °C.

`C=Cc1ccc(CSCCNC(=S)CCC(=O)O)cc1` showed a melting point of 97 to 99 °C.

For the compound `O=C1CC(=O)CC(c2ccccc2Cl)C1`, the melting point fell in the range of 157 to 158 °C.

Compound `CCCNc1nc(NCCC)nc(Nc2ccc(OC)c(F)c2)n1` had a melting point of 53 to 55 °C.
